Measured values taken from patent US20250235460A1, “COMBINATION THERAPY USING GLUCOSE-DEPENDENT INSULINOTROPIC POLYPEPTIDE RECEPTOR ANTAGONIST COMPOUNDS AND GLP-1 RECEPTOR AGONIST COMPOUNDS” (Pfizer Inc., priority 2024, published 2025).
pEC50: −log10 of the molar value.

Legend:
human GLP-1R [1] = target: human GLP-1R (Homo sapiens, UniProt P43220, G168S); assay: CHO GLP-1R Clone H6 cAMP HTRF agonist assay (Assay 1, high receptor density); assay type: cell-based; conditions: for pEC50: CHO GLP-1R clone H6, cAMP HTRF, geometric mean; for Emax: read-out: Assay 1 Emax (%)
In short: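 EC50 values are reported as geometric means and Emax as arithmetic means across the listed number of replicates, both given to two significant figures.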

human GLP-1R [2] = target: human GLP-1R (Homo sapiens, UniProt P43220, L260F); assay: CHO GLP-1R Clone C6 cAMP HTRF agonist assay (Assay 2, low receptor density); assay type: cell-based; conditions: for pEC50: CHO GLP-1R clone C6, cAMP HTRF, geometric mean; for Emax: CHO GLP-1R clone C6, arithmetic mean, relative to saturating GLP-1 (1 μM)
From the text: In Table 5 and Table 6, assay data are presented to two (2) significant figures as the geometric mean (EC50s) and arithmetic mean (Emax) based on the number of replicates listed (Number). A blank cell means there was no data for that Example or the Emax was not calculated.

[3] = CHO GLP-1R clone H6, arithmetic mean, relative to saturating GLP-1 (1 μM)

human GLP-1R (Homo sapiens, UniProt P43220, G168S), sequence (P43220 24-463 G168S): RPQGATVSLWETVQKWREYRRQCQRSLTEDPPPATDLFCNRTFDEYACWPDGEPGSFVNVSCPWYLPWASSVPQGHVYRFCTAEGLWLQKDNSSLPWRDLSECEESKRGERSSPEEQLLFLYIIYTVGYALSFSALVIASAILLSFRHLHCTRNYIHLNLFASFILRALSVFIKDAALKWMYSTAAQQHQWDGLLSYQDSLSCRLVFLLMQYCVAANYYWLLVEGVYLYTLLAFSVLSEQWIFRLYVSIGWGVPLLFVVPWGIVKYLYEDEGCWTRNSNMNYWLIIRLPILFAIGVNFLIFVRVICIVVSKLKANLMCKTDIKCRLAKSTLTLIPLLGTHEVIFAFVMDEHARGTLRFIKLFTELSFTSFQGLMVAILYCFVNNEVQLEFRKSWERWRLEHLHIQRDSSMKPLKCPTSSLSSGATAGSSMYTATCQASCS
human GLP-1R (Homo sapiens, UniProt P43220, L260F), sequence (P43220 24-463 L260F): as the sequence (P43220 24-463 G168S) above, with S145G, L237F counted along it

| pEC50 (human GLP-1R [1]) | Emax (human GLP-1R [1]; [3]) [%] | pEC50 (human GLP-1R [2]) | Emax (human GLP-1R [2]) [%] | Assay 1 Emax (%) (human GLP-1R [1]; [3]) | SMILES |
| --- | --- | --- | --- | --- | --- |
| – | – | 5.77 | 88 | 79 | N#Cc1ccc(COc2cccc(C3CCN(Cc4nc5ccc(C(=O)O)nc5n4Cc4ncco4)CC3)n2)c(F)c1 [Compound 168B, 2-[(4-{6-[(4-cyano-2-fluorobenzyl)oxy]pyridin-2-yl}piperidin-1-yl)methyl]-3-(1,3-oxazol-2-ylmethyl)-3H-imidazo[4,5-b]pyridine-5-carboxylic acid] |
| 7.10 | 81 | 5.40 | 75 | – | COCCn1c(CN2CCC(c3cccc(OCc4ccc(Cl)cc4F)n3)CC2)nc2ccc(C(=O)O)c(F)c21 [Compound 170B, 2-[(4-{6-[(4-chloro-2-fluorobenzyl)oxy]pyridin-2-yl}piperidin-1-yl)methyl]-7-fluoro-1-(2-methoxyethyl)-1H-benzimidazole-6-carboxylic acid] |
| 6.77 | 78 | 5.68 | 71 | – | COCCn1c(CN2CCN(c3ccc(F)c(OCc4ccc(C#N)cc4)n3)C[C@@H]2C)nc2ccc(C(=O)O)cc21 [Compound 175B, 2-{[(2S)-4-{6-[(4-cyanobenzyl)oxy]-5-fluoropyridin-2-yl}-2-methylpiperazin-1-yl]methyl}-1-(2-methoxyethyl)-1H-benzimidazole-6-carboxylic acid] |
| 6.74 | 78 | 5.46 | 90 | – | COCCn1c(CN2CCN(c3cccc(OCc4ccc(Cl)cc4F)n3)[C@@H](C)C2)nc2ccc(C(=O)O)cc21 [Compound 183B, 2-{[(3S)-4-{6-[(4-chloro-2-fluorobenzyl)oxy]pyridin-2-yl}-3-methylpiperazin-1-yl]methyl}-1-(2-methoxyethyl)-1H-benzimidazole-6-carboxylic acid] |
| 8.49 | 77 | 7.37 | 84 | – | COCCn1c(CN2CCN(c3cccc(OCc4ccc(Cl)cc4F)n3)[C@H](C)C2)nc2ccc(C(=O)O)cc21 [Compound 184B, 2-{[(3R)-4-{6-[(4-chloro-2-fluorobenzyl)oxy]pyridin-2-yl}-3-methylpiperazin-1-yl]methyl}-1-(2-methoxyethyl)-1H-benzimidazole-6-carboxylic acid] |
| 9.47 | 89 | 8.66 | 97 | – | COCCn1c(CN2CCN(c3cccc(OCc4ccc(Cl)cc4F)n3)[C@@H](CO)C2)nc2ccc(C(=O)O)cc21 [Compound 185B, 2-{[(3R)-4-{6-[(4-chloro-2-fluorobenzyl)oxy]pyridin-2-yl}-3-(hydroxymethyl)piperazin-1-yl]methyl}-1-(2-methoxyethyl)-1H-benzimidazole-6-carboxylic acid] |
| 7.31 | 71 | 5.68 | – | – | CCCn1cnnc1Cn1c(CN2CCC(c3cccc(OCc4ccc(Cl)cc4F)n3)CC2)nc2ccc(C(=O)O)cc21 [Compound 187B, 2-[(4-{6-[(4-chloro-2-fluorobenzyl)oxy]pyridin-2-yl}piperidin-1-yl)methyl]-1-[(4-propyl-4H-1,2,4-triazol-3-yl)methyl]-1H-benzimidazole-6-carboxylic acid] |
| 8.62 | 71 | 7.42 | 83 | – | Cn1cnnc1Cn1c(CN2CCC(c3cccc(OCc4ccc(C#N)cc4F)n3)CC2)nc2ccc(C(=O)O)cc21 [Compound 188B, 2-[(4-{6-[(4-cyano-2-fluorobenzyl)oxy]pyridin-2-yl}piperidin-1-yl)methyl]-1-[(4-methyl-4H-1,2,4-triazol-3-yl)methyl]-1H-benzimidazole-6-carboxylic acid] |

More lines, now with the values behind:

| SMILES | pEC50 (human GLP-1R [1]) | Emax (human GLP-1R [1]; [3]) [%] | pEC50 (human GLP-1R [2]) | Emax (human GLP-1R [2]) [%] | Assay 1 Emax (%) (human GLP-1R [1]; [3]) |
| --- | --- | --- | --- | --- | --- |
| O=C(O)c1ccc2nc(CN3CCC(c4cccc(OCc5ccc(Cl)cc5F)n4)CC3)n(Cc3ncco3)c2c1 [Compound 156B, 2-[(4-{6-[(4-chloro-2-fluorobenzyl)oxy]pyridin-2-yl}piperidin-1-yl)methyl]-1-(1,3-oxazol-2-ylmethyl)-1H-benzimidazole-6-carboxylic acid] | 9.02 | 80 | 7.85 | 95 | – |
| O=C(O)c1ccc2nc(CN3CCC(c4cccc(OCc5ccc(F)cc5F)n4)CC3)n(Cc3cnco3)c2c1 [Compound 157B, 2-[(4-{6-[(2,4-difluorobenzyl)oxy]pyridin-2-yl}piperidin-1-yl)methyl]-1-(1,3-oxazol-5-ylmethyl)-1H-benzimidazole-6-carboxylic acid] | 8.07 | 88 | 6.66 | 110 | – |
| O=C(O)c1ccc2nc(CN3CCN(c4cccc(OCc5ccc(Cl)cc5F)n4)CC3)n(Cc3cnco3)c2c1 [Compound 158B, 2-[(4-{6-[(4-chloro-2-fluorobenzyl)oxy]pyridin-2-yl}piperazin-1-yl)methyl]-1-(1,3-oxazol-5-ylmethyl)-1H-benzimidazole-6-carboxylic acid] | 7.85 | 72 | 6.72 | 83 | – |
| CCn1nncc1Cn1c(CN2CCN(c3cccc(OCc4ccc(C#N)cc4F)n3)CC2)nc2ccc(C(=O)O)cc21 [Compound 159B, 2-[(4-{6-[(4-cyano-2-fluorobenzyl)oxy]pyridin-2-yl}piperazin-1-yl)methyl]-1-[(1-ethyl-1H-1,2,3-triazol-5-yl)methyl]-1H-benzimidazole-6-carboxylic acid] | 9.30 | 73 | 7.66 | – | – |
| N#Cc1ccc(COc2cccc(C3CCN(Cc4nc5ccc(C(=O)O)cc5n4Cc4ccon4)CC3)n2)c(F)c1 [Compound 161B, 2-[(4-{6-[(4-cyano-2-fluorobenzyl)oxy]pyridin-2-yl}piperidin-1-yl)methyl]-1-(1,2-oxazol-3-ylmethyl)-1H-benzimidazole-6-carboxylic acid] | 8.96 | 79 | 7.89 | 100 | – |
| CCn1cncc1Cn1c(CN2CCC(c3cccc(OCc4ccc(C#N)cc4F)n3)CC2)nc2ccc(C(=O)O)cc21 [Compound 162B, 2-[(4-{6-[(4-cyano-2-fluorobenzyl)oxy]pyridin-2-yl}piperidin-1-yl)methyl]-1-[(1-ethyl-1H-imidazol-5-yl)methyl]-1H-benzimidazole-6-carboxylic acid] | 9.47 | 78 | 8.13 | 94 | – |
| CCn1nncc1Cn1c(CN2CCC(c3cccc(OCc4ccc(C#N)cc4F)n3)CC2)nc2ccc(C(=O)O)cc21 [Compound 164B, 2-[(4-{6-[(4-cyano-2-fluorobenzyl)oxy]pyridin-2-yl}piperidin-1-yl)methyl]-1-[(1-ethyl-1H-1,2,3-triazol-5-yl)methyl]-1H-benzimidazole-6-carboxylic acid] | 8.49 | – | 7.26 | 86 | – |
| O=C(O)c1ccc2nc(CN3CCC(c4cccc(OCc5ccc(Cl)cc5F)n4)CC3)n(Cc3ncco3)c2n1 [Compound 167B, 2-[(4-{6-[(4-chloro-2-fluorobenzyl)oxy]pyridin-2-yl}piperidin-1-yl)methyl]-3-(1,3-oxazol-2-ylmethyl)-3H-imidazo[4,5-b]pyridine-5-carboxylic acid] | 7.74 | 84 | 6.46 | 77 | – |
